Data from patent US20260028390A1, “ALPHA1-ANTITRYPSIN FOR USE IN THE TREATMENT OF DISEASES OR DISORDERS OF THE NERVOUS SYSTEM SUCH AS CHRONIC INFLAMMATORY DEMYELINATING POLYNEUROPATHY” (Ageronix SA, priority 2022, published 2026).
“And” between values parts separate entries of the source, which are not always exact repeats. Identical values can stand only once.

Tests used:
SH-SY5Y cells = experiment: Cell growth (cell count, morphology) of SH-SY5Y treated with 6-OHDA; format: cell-based; details: 6-OHDA combined with AAT 25 μM, day 4 of culture, p=0.003
Procedure: SH-SY5Y cells, which are commonly used to model neurodegenerative disorders, were used to produce an in vitro Parkinson's model (Que R, et al., 2021, Front. Immunol. 12). Cells were cultured in DMEMF12/Glutamax supplemented with 10% FBS.
(§1) Cells were treated for 24 hours with the neurotoxin 6-hydroxydopamine (6-OHDA, Sigma Aldrich 162957) at 50, 100 μM concentrations alone or in combination with AAT 25 μM (AAT plasma derived, Sigma Aldrich batch A9024). Cells treated with AAT alone or in combination with 6-OHDA for 24 hours, were then incubated with fresh AAT for additional 24 hours. Control cells were treated with PBS.
At day 0 cells were plated in equally number in 24-well plate, the day after they were treated as described above, and final total cell count was performed at day 4 of culture (cell growth). Cell viability was assessed with Cell Counting Kit-8 (CCK-8; Sigma Aldrich 96992). After treatments, cells were incubated with 10 μl of CCK-8 solution for 2 hours in the incubator. Absorbance was measured at 450 nm using SpectraMax iD3 Microplate Reader. Experiments were performed in triplicate.

plasma TNFα = experiment: Plasma TNFα concentration, CMT1A mouse study (50 mg/kg twice daily); format: in vivo; details: for Plasma TNFα concentration (Mean ± SEM): CMT1A mice
Procedure: (§2) Animals were split in 3 groups (wild-type control (subcutaneous 0.9% NaCl), CMT1A-vehicle (subcutaneous 0.9% NaCl), CMT1A-human alpha-1 antitrypsin (subcutaneous, twice daily, 50 mg/kg per injection)) of 3 mice each (3 weeks old males of 18±2.5 g at the beginning of study) and all went through the following protocol after 7 days of acclimation on site.
Starting from the age of 4 weeks, animals were subjected to blood samplings for the determination of interleukin-6 (IL-6) and tumor necrosing factor alpha (TNFα) levels, as described in FIG. 16.

[1] = system: CMT1A mice B6.Cg-Tg(PMP22)C3Fbas/J; experiment: Sciatic nerve electrophysiology (CMAP, NCV), CMT mice treated with AAT 180 mg/kg/day sc; format: in vivo, mouse; details: 6 weeks old, CMT + hAAT
IL-6 = experiment: Human IL-6 immunoassay on SH-SY5Y cell supernatant; format: cell-based; details: medium from cells treated with AAT vs 6-OHDA induced, not significant
Procedure: as §1
Human 11-6 immunoassay (R&D D6050) was performed on cells supernatant. Briefly, 40000 cells were plated in 24-well plate and treated the day after as described in paragraph “Cells and treatment”. At the end of the treatment, cells were washed with PBS and incubated with 2% FBS medium for 24 hours, then cell culture supernatants were collected and centrifuged to remove particulates. Assay procedure was performed as described by manufactured instructions, on standard and samples duplicates. Absorbance was measured at 450 nm using SpectraMax iD3 Microplate Reader. A standard curve was prepared from seven IL-6 standard dilutions and IL-6 sample concentrations determined.

Microglial (HMC3) cells = experiment: IL6 and IL1B gene expression (qPCR) in IFNγ-induced microglia; format: cell-based, human; details: HMC3, IFNγ 10 ng/mL 24 h; AAT 25 μM or peptides 50 μM
Procedure: Microglial (HMC3) cells were seeded into 96-well plates at a density of approximately 2500 cells/well. Plasma derived AAT (Sigma, 25 μM) or peptide 8, peptide 9 or peptide 14 (Syngene, 50 μM) were added, and microglial activation was induced with interferon gamma (IFNγ) (10 ng/mL) for 24 h with no preincubation. Then, the RNA was extracted (RNAeasy mini kit, Qiagen) and the expression of the Interleukin-6 (IL6) and Interleukin-Ibeta (ILIB) genes were analysed. qPCR was performed with Syber green POWER UP master mix using 10 ng/well of cDNA in all gene expression results.

[2] = system: CMT1A mice B6.Cg-Tg(PMP22)C3Fbas/J; experiment: Grip strength, CMT mice treated with AAT 180 mg/kg/day sc; format: in vivo, mouse; details: 8 weeks old, CMT + hAAT 180 mg/kg/day SC, individual animal
[3] = Bodyweight, CIDP mouse model; format: in vivo; details: per animal, listed as hAAT
Procedure: C57BL/6 mice were received at 8 weeks of age and housed under controlled conditions for the duration of the study. Three groups of 4 animals each were assigned to the following subcutaneous treatments twice daily at 7:00 AM and 7:00 PM for 2 weeks, from 20 to 35 days after the start of disease induction: • Wild type (WT) mice receiving the vehicle, 0.9% NaCl (positive control) • CIDP mice receiving the vehicle, 0.9% NaCl (negative control) • CIDP mice receiving human AAT (AAT), 50 mg/kg per injection
Disease induction consisted in subcutaneous injection of mouse sciatic nerve homogenate in phosphate buffer saline (PBS)+Freund's adjuvant mixture at 10 mL/kg. For each treatment, 3 different body sites injections were performed. Control mice also received three subcutaneous injections of PBS+Freund's adjuvant at the same 3 different body sites.

[4] = Plasma AAT levels, CMT1A mouse study (50 mg/kg twice daily); format: in vivo; details: CMT1A + AAT group
Procedure: as §2
Plasma levels of AAT were evaluated every 5 days from the first day of treatment to the last treatment day.
AAT was not detected in plasma of the wild type control and CMT1A mice treated with vehicle at the analyzed time points (day 14, day 19, day 24 and day 29). The AAT was detected in plasma of CMT1A+AAT group at a mean of 6.07 μg/mL, 6.99 μg/mL, 8.14 μg/mL and 5.22 μg/mL at day 14, day 19, day 24 and day 29 respectively.

alpha1-antitrypsin (AAT) protein
number of cells counted compared to 6-OHDA alone (SH-SY5Y cells): significantly increased
effect on plasma TNFα levels (plasma TNFα; CMT1A + AAT, day 14 and day 29): no effect
Plasma TNFα concentration (Mean ± SEM) (plasma TNFα; Day 1 (baseline)): 2.94 ± 0.17 pg/mL
Plasma TNFα concentration (Mean ± SEM) (plasma TNFα; Day 8): 3.70 ± 0.41 pg/mL
Plasma TNFα concentration (Mean ± SEM) (plasma TNFα; Day 14): 5.15 ± 0.393 pg/mL
Plasma TNFα concentration (Mean ± SEM) (plasma TNFα; Day 29): 10.67 ± 0.833 pg/mL
Amplitude, group MEAN ([1]; 8 mice): 6.628 mV
Amplitude ([1]; individual mouse): 7.828 mV and 3.009 mV and 5.770 mV and 5.919 mV and 7.925 mV and 8.742 mV and 6.803 mV and 7.028 mV
Conduction velocity ([1]; individual mouse): 31.949 m/s and 34.989 m/s and 30.328 m/s and 19.190 m/s and 18.114 m/s and 20.530 m/s and 26.247 m/s and 28.783 m/s
T1 distal ([1]; individual mouse): 7.416 ms and 5.701 ms and 12.428 ms and 5.913 ms and 6.041 ms and 3.664 ms and 4.204 ms and 3.385 ms
T2 proximal ([1]; individual mouse): 7.885 ms and 6.130 ms and 12.922 ms and 6.694 ms and 6.869 ms and 4.395 ms and 4.775 ms and 3.906 ms
IL-6 in cell supernatant (IL-6): less concentration
IL1B expression reduced by (Microglial (HMC3) cells): 60-70%
IL6 expression reduced by (Microglial (HMC3) cells): 30-40%
Grip strength, Mean/animal [2]: 4.83 NEWTONS and 2.73 NEWTONS and 2.97 NEWTONS and 4.09 NEWTONS and 5.05 NEWTONS and 7.59 NEWTONS and 5.53 NEWTONS and 5.68 NEWTONS
Grip strength, set 1 [2]: 3.97 NEWTONS and 2.15 NEWTONS and 3.47 NEWTONS and 4.13 NEWTONS and 4.85 NEWTONS and 8.17 NEWTONS and 6.20 NEWTONS and 4.87 NEWTONS
Grip strength, set 2 [2]: 5.37 NEWTONS and 4.34 NEWTONS and 2.22 NEWTONS and 4.58 NEWTONS and 3.84 NEWTONS and 5.69 NEWTONS and 4.40 NEWTONS and 5.39 NEWTONS
Grip strength, set 3 [2]: 5.14 NEWTONS and 1.69 NEWTONS and 3.21 NEWTONS and 3.55 NEWTONS and 6.47 NEWTONS and 8.92 NEWTONS and 5.99 NEWTONS and 6.77 NEWTONS
Bodyweight ([3]; day 1 (before disease induction), in g (unit assumed)): 20.74 and 20.81 and 19.50 and 20.65
Bodyweight ([3]; day 5 (before treatment), in g (unit assumed)): 20.92 and 21.07 and 20.12 and 20.71
Bodyweight ([3]; day 9 (before treatment)): 21.26 (2×) and 20.54 and 21.00
Bodyweight ([3]; day 13 (before treatment), in g (unit assumed)): 21.76 and 21.37 and 20.24 and 21.18
Bodyweight ([3]; day 17 (before treatment), in g (unit assumed)): 21.92 and 21.54 and 21.35 and 21.90
Bodyweight ([3]; day 20 (first treatment day), in g (unit assumed)): 22.06 and 21.58 and 21.41 and 22.04
Bodyweight ([3]; day 23, in g (unit assumed)): 22.21 and 21.71 and 21.43 and 22.13
Bodyweight ([3]; day 26, in g (unit assumed)): 22.31 and 21.78 and 21.47 and 22.20
Bodyweight ([3]; day 29, in g (unit assumed)): 22.49 and 21.87 and 21.53 and 22.30
Bodyweight ([3]; day 32, in g (unit assumed)): 22.68 and 22.00 and 21.64 and 22.45
Bodyweight ([3]; day 35, in g (unit assumed)): 22.79 and 22.14 and 21.65 and 22.62
AAT detected in plasma (mean) ([4]; day 14): 6.07 µg/mL
AAT detected in plasma (mean) ([4]; day 19): 6.99 µg/mL
AAT detected in plasma (mean) ([4]; day 24): 8.14 µg/mL
AAT detected in plasma (mean) ([4]; day 29): 5.22 µg/mL
